Molecules are shown by their SMILES. Some results are limits rather than exact numbers.

For this test, the target named is STAT3 (Homo sapiens, UniProt P40763). The experiment in a line: STAT3 HiBiT degradation assay in transfected A549 cells. Details: expressed in transfected cells; host or cells: A549. The format is cell-based. The conditions noted are these: A549, 24 h; read-out: STAT3 HiBiT A549 degradation 24 h: Average external-Abs DC50. How it is done: Compound preparation and Cell seeding: The transfected A549 cells were harvested from dish into cell culture medium and cell numbers counted. Cells were diluted with culture medium to the desired density and 30 μL of cell suspension (about 2000 cells/well) were added into each well of a 384-well cell culture plate as designated and transferred into 37° C. 5% CO2 incubator for 24 h. Compounds were dissolved to 10 mM stock solution and 12 μL of the stock solution was transferred to a 384 LDV-plate. 3 fold, 10-point dilution was performed by transferring 4 μL compound into 8 μL DMSO using a TECAN (EVO200) liquid handler. 30 μL of diluted compound from compound source plate was transferred into the cell plate as designated by using Echo550 and transferred into 37° C. 5% CO2 incubator for 24 h.
STAT3, sequence (P40763 whole entry): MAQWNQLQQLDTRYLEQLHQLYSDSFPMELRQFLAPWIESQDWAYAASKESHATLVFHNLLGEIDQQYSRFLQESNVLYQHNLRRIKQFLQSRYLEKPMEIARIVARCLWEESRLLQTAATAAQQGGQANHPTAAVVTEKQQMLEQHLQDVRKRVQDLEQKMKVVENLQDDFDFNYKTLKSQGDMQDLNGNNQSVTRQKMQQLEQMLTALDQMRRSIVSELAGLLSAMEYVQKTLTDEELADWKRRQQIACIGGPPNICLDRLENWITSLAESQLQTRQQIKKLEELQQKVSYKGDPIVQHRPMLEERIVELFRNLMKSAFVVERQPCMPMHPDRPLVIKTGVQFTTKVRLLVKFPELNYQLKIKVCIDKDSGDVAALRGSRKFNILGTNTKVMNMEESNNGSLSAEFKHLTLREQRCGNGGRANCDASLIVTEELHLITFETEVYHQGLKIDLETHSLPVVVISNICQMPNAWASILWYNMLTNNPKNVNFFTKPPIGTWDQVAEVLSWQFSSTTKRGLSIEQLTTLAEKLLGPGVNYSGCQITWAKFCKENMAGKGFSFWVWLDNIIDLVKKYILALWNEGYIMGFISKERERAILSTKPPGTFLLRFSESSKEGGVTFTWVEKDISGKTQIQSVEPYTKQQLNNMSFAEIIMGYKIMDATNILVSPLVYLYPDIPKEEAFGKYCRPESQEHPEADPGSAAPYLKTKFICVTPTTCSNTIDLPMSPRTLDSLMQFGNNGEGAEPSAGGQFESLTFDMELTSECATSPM
Detection: Plates were removed from incubators and equilibrated at room temperature for 15 minutes. Nano-Glo Hibit Lytic Detection reagent (Promega Cat #N3040) was thawed and equilibrated to room temperature before the experiment. 30 μL of Nano-Glo Hibit Lytic Detection reagent was added into each well to be detected. The plates were held at room temperature for 10 min followed by reading on EnSpire.
Data analysis: The remaining activity was calculated following the formula: Remaining Activity (%)=100%×(Lumsample−LumNC)/(LumPC−LumNC). Calculate the IC50 by fitting the curve using Xlfit (v5.3.1.3), equation 201: fit=(A+((B−A)/(1+((x/C)^D)))); A: Bottom; B: Top; C: IC50; and D: Slope.
The letter codes for STAT3 DC50 include: A (<0.01 μM), B (0.01-0.1 μM), C (0.1-1.0 μM), and D (>1.0 μM).
(HiBiT is a short tag that completes a luciferase, so light tracks the accessible tagged protein.)
As usually defined, the DC50 is the midpoint of the concentration-degradation curve. On to `Cc1ncsc1-c1ccc(CNC(=O)[C@@H]2C[C@@H](O)CN2C(=O)[C@@H](NC(=O)NCCCc2ccc(CO[C@H](C)[C@H](CCC(N)=O)NC(=O)[C@@H]3Cc4cccc5c4N3C(=O)[C@@H](NC(=O)c3cc4cc(C(=O)P(=O)(O)O)ccc4[nH]3)CC5)cc2)C(C)(C)C)cc1` [Compound I-151, 2-[[(2S,11S)-2-[[(3S,4R)-1-carbamoyl-4-([4-[3-([[(2S)-1-[(2S,4R)-4-hydroxy-2-([[4-(4-methyl-1,3-thiazol-5-yl)phenyl]methyl]carbamoyl)pyrrolidin-1-yl]-3,3-dimethyl-1-oxobutan-2-yl]carbamoyl]amino)propyl]phenyl]methoxy)pentan-3-yl]carbamoyl]-12-oxo-1-azatricyclo[6.4.1.0^[4,13]]trideca-4(13),5,7-trien-11-yl]carbamoyl]-1H-indole-5-carbonylphosphonic acid], for which the DC50 was 0.1 to 1 µM.
Consider `Cc1ncsc1-c1ccc(CNC(=O)[C@@H]2C[C@@H](O)CN2C(=O)[C@@H](NC(=O)[C@H]2C[C@H](Cc3ccc(CO[C@H](C)[C@H](CCC(N)=O)NC(=O)[C@@H]4Cc5cccc6c5N4C(=O)[C@@H](NC(=O)c4cc5cc(C(=O)P(=O)(O)O)ccc5[nH]4)CC6)cc3)C2)C(C)(C)C)cc1` [Compound I-146, diammonium 2-[[(2S,11S)-2-[[(3S,4R)-1-carbamoyl-4-[(4-[[(1r,3r)-3-[[(2S)-1-[(2S,4R)-4-hydroxy-2-([[4-(4-methyl-1,3-thiazol-5-yl)phenyl]methyl]carbamoyl)pyrrolidin-1-yl]-3,3-dimethyl-1-oxobutan-2-yl]carbamoyl]cyclobutyl]methyl]phenyl)methoxy]pentan-3-yl]carbamoyl]-12-oxo-1-azatricyclo[6.4.1.0^[4,13]]trideca-4(13),5,7-trien-11-yl]carbamoyl]-1H-indole-5-carbonylphosphonate], for which the DC50 was in the range of 0.1 to 1 µM.
Regarding `Cn1c(=O)n(C2CCC(=O)NC2=O)c2ccc(CCCCCCc3cc4c5c(c3)C[C@@H](C(=O)N[C@@H](CCC(N)=O)C(=O)NC(c3ccccc3)c3ccccc3)N5C(=O)[C@@H](NC(=O)c3cc5cc(C(=O)P(=O)(O)O)ccc5[nH]3)CC4)cc21` (stereo partly drawn) [Compound I-229, 2-[[(2S,11S)-2-[[(1S)-3-carbamoyl-1-(diphenylmethylcarbamoyl)propyl]carbamoyl]-6-[6-[1-(2,6-dioxopiperidin-3-yl)-3-methyl-2-oxo-1,3-benzodiazol-5-yl]hexyl]-12-oxo-1-azatricyclo[6.4.1.0 [4,13]]-trideca-4(13),5,7-trien-11-yl]carbamoyl]-1H-indole-5-carbonylphosphonic acid], the 50% degradation concentration (DC50) was 0.01 to 0.1 µM.
The same measure for `Cc1ncsc1-c1ccc([C@H](C)NC(=O)[C@@H]2C[C@@H](O)CN2C(=O)[C@@H](NC(=O)CCCCCc2cccc(NC(=O)[C@H](CCC(N)=O)NC(=O)[C@@H]3Cc4cccc5c4N3C(=O)[C@@H](NC(=O)c3cc4cc(C(=O)P(=O)(O)O)ccc4[nH]3)CC5)c2C)C(C)(C)C)cc1` [Compound I-259]: 0.1 to 1 µM; for `Cn1c(=O)n(C2CCC(=O)NC2=O)c2ccc(CCCCCCCc3cc4c5c(c3)C[C@@H](C(=O)N[C@@H](CCC(N)=O)C(=O)NC(c3ccccc3)c3ccccc3)N5C(=O)[C@@H](NC(=O)c3cc5cc(C(=O)P(=O)(O)O)ccc5[nH]3)CC4)cc21` (stereo partly drawn) [Compound I-182, 2-[[(2S,11S)-2-[[(1S)-3-carbamoyl-1-(diphenylmethylcarbamoyl)propyl]carbamoyl]-6-[7-[1-(2,6-dioxopiperidin-3-yl)-3-methyl-2-oxo-1,3-benzodiazol-5-yl]heptyl]-12-oxo-1-azatricyclo[6.4.1.0^[4,13]]trideca-4(13),5,7-trien-11-yl]carbamoyl]-1H-indole-5-carbonylphosphonic acid]: 0.1 to 1 µM.
As to `Cc1ncsc1-c1ccc([C@H](C)NC(=O)[C@@H]2C[C@@H](O)CN2C(=O)[C@@H](NC(=O)CCCCCc2c(F)ccc(OC[C@H](CCC(N)=O)NC(=O)[C@@H]3Cc4cccc5c4N3C(=O)[C@@H](NC(=O)c3cc4cc(C(=O)P(=O)(O)O)ccc4[nH]3)CC5)c2F)C(C)(C)C)cc1` [Compound I-252], the DC50 is less than 0.01 µM.
On to `Cc1ncsc1-c1ccc([C@H](C)NC(=O)[C@@H]2C[C@@H](O)CN2C(=O)[C@@H](NC(=O)CCCCCc2cccc(OC[C@@H](NC(=O)[C@@H]3Cc4cccc5c4N3C(=O)[C@@H](NC(=O)c3cc4cc(C(=O)P(=O)(O)O)ccc4[nH]3)CC5)C(N)=O)c2C)C(C)(C)C)cc1` [Compound I-205, diammonium 2-[[(2S,11S)-2-[[(2S)-4-carbamoyl-1-[3-[5-[[(2S)-1-[(2S,4R)-4-hydroxy-2-[[(1S)-1-[4-[4-methyl-1,3-thiazol-5-yl)phenyl]ethyl]carbamoyl]pyrrolidin-1-yl]-3,3-dimethyl-1-oxobutan-2-yl]carbamoyl]pentyl)-2-methylphenoxy]butan-2-yl]carbamoyl]-12-oxo-1-azatricyclo[6.4.1.0^[4,13]]trideca-4(13),5,7-trien-11-yl]carbamoyl]-1H-indole-5-carbonylphosphonate], for which the half-maximal degradation concentration (DC50) lay within 0.01 to 0.1 µM.
The same measure for `CC(C)c1ccc(CNC(=O)[C@H](CCC(N)=O)NC(=O)[C@@H]2CC[C@@H]3CCN(C(=O)[C@H]4CC[C@@H](CCc5ccc6c(c5)n(C)c(=O)n6C5CCC(=O)NC5=O)CC4)C[C@H](NC(=O)c4cc5cc(C(=O)P(=O)(O)O)ccc5[nH]4)C(=O)N32)cc1` (stereo partly drawn) [Compound I-295, (2-(((5S,8S,10aR)-8-(((S)-5-amino-1-((4-isopropylbenzyl)amino)-1,5-dioxopentan-2-yl)carbamoyl)-3-((1r,4R)-4-(2-(1-(2,6-dioxopiperidin-3-yl)-3-methyl-2-oxo-2,3-dihydro-1H-benzo[d]imidazol-5-yl)ethyl)cyclohexane-1-carbonyl)-6-oxodecahydropyrrolo[1,2-a][1,5]diazocin-5-yl)carbamoyl)-1H-indole-5-carbonyl)phosphonic acid]: less than 0.01 µM; for `Cn1c(=O)n(C2CCC(=O)NC2=O)c2ccc([C@H]3CC[C@@H](CCC(=O)N4CC[C@H]5CC[C@@H](C(=O)N[C@@H](CCC(N)=O)C(=O)NC(c6ccccc6)c6ccccc6)N5C(=O)[C@@H](NC(=O)c5cc6cc(C(=O)P(=O)(O)O)ccc6[nH]5)C4)CC3)cc21` (stereo partly drawn) [Compound I-273, 2-[[(5S,8S,10aR)-8-[[(1S)-3-carbamoyl-1-(diphenylmethylcarbamoyl)propyl]carbamoyl]-6-oxo-3-[3-[(1s,4s)-4-[1-(2,6-dioxopiperidin-3-yl)-3-methyl-2-oxo-1,3-benzodiazol-5-yl]cyclohexyl]propanoyl]-octahydropyrrolo[1,2-a][1,5]diazocin-5-yl]carbamoyl]-1H-indole-5-carbonylphosphonic acid]: 0.1 to 1 µM; for `Cc1ncsc1-c1ccc(CNC(=O)[C@@H]2C[C@@H](O)CN2C(=O)[C@@H](NC(=O)CCCc2ccc(CNC(=O)[C@H](CCC(N)=O)NC(=O)[C@@H]3Cc4cccc5c4N3C(=O)[C@@H](NC(=O)c3cc4cc(C(=O)P(=O)(O)O)ccc4[nH]3)CC5)cc2)C(C)(C)C)cc1` [Compound I-138]: greater than 1 µM.
For the compound `Cc1ncsc1-c1ccc([C@H](C)NC(=O)[C@@H]2C[C@@H](O)CC2C(=O)[C@@H](NC(=O)OCCCCc2cccc(N(C)CC(CCC(N)=O)NC(=O)[C@@H]3Cc4cccc5c4N3C(=O)[C@@H](NC(=O)c3cc4cc(C(=O)P(=O)(O)O)ccc4[nH]3)CC5)c2F)C(C)(C)C)cc1` (stereo partly shown) [Compound I-254], the half-maximal degradation concentration (DC50) lay in the range of 0.1 to 1 µM.
The same measure for `C/C(=C\C(=O)N[C@H]1CCc2cccc3c2N(C1=O)[C@H](C(=O)N[C@@H](CCC(N)=O)[C@@H](C)OCc1ccc(CCCCC(=O)N[C@H](C(=O)N2C[C@@H](O)C[C@H]2C(=O)NCc2ccc(-c4scnc4C)cc2)C(C)(C)C)cc1)C3)c1ccc(C(F)(F)P(=O)(O)O)cc1` [Compound I-119]: greater than 1 µM; for `Cn1c(=O)n(C2CCC(=O)NC2=O)c2ccc([C@H]3CC[C@@H](CCCC(=O)N4CC[C@H]5CC[C@@H](C(=O)N[C@@H](CCC(N)=O)C(=O)NC(c6ccccc6)c6ccccc6)N5C(=O)[C@@H](NC(=O)c5cc6cc(C(=O)P(=O)(O)O)ccc6[nH]5)C4)CC3)cc21` (stereo partly drawn) [Compound I-274, 2-[[(5S,8S,10aR)-8-[[(1S)-3-carbamoyl-1-(diphenylmethylcarbamoyl)propyl]carbamoyl]-6-oxo-3-[4-[(1s,4r)-4-[1-(2,6-dioxopiperidin-3-yl)-3-methyl-2-oxo-1,3-benzodiazol-5-yl]cyclohexyl]butanoyl]-octahydropyrrolo[1,2-a][1,5]diazocin-5-yl]carbamoyl]-1H-indole-5-carbonylphosphonic acid]: 0.1 to 1 µM.
